Literature values as cited in patent US9464060B2, “Compounds” (TAKEDA PHARMACEUTICAL COMPANY LIMITED, priority 2013, dated 2016).

Biological target: LPA5 receptor (Homo sapiens (Human), UniProt Q9H1C0)
Conditions: reported, cited from earlier work

Sequence of LPA5 receptor (Q9H1C0 whole entry): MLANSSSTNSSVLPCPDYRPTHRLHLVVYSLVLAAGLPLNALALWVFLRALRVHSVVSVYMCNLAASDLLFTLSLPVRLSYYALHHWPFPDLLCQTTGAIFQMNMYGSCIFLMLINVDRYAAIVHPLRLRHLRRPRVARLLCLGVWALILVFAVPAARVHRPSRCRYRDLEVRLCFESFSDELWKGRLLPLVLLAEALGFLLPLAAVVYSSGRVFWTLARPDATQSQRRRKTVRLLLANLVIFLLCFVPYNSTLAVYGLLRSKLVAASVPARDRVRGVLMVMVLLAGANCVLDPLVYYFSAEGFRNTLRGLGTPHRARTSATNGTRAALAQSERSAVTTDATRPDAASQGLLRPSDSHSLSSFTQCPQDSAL

In the case of `CC(C)=CCC/C(C)=C/CC/C(C)=C/COP(=O)(O)OP(=O)(O)O` [Farnesyl pyrophosphate], the EC50 (LPA5 receptor, read-out: in-vitro EC50) is given as 49 nM and the “selectivity over other LPA receptors” value is given as 3 fold.
